Measured values published in US6743425B2, “Therapeutic agents for achondroplasia” (priority 2001, dated 2004).

What was measured:
[1] = tested on: mouse chondrocyte strain ATDC; test: intracellular cGMP production by RIA in ATDC cells after basic FGF pretreatment and CNP stimulation; assay type: cell-based; conditions: pretreatment with 1 ng/ml basic FGF for 1 h
Experimental: (§1) Cells of the mouse chondrocyte strain ATDC (J. Bone. Miner. Res., 12, 1174-1188, 1997; supplied from Assistant Professor Shukunami and Professor […] of the Institute for Frontier Medical Sciences, Kyoto University) were pretreated with 1-10 ng/ml basic FGF (SIGMA), a ligand for FGFR3. Then, these cells were stimulated with 10^-9-10^-7 M CNP and assayed for intracellular cGMP production by the RIA method (cyclic GMP Assay Kit available from YAMASA CORPORATION). Phosphorylation of p44 and p42 MAP kinases (ERK1/2) and expression of […] and p44 MAP kinase (ERK1) after basic FGF stimulation were also assayed by Western blotting using phosphorylated MAP-K antibodies and MAP-K antibodies (both available from Cell Signaling Technology; MAP: mitogen-activated protein).

tibiae from fetal mice = conditions: organ cultures of tibiae from fetal mice; J. Biol. Chem. 273: 11695-11700, 1998; cited from earlier work
[2] = tested on: tibiae from the fetus of CNP-transgenic mice or their nontransgenic littermates; test: organ culture of embryonic tibiae (4-d culture; longitudinal length and histology); assay type: cell-based, mouse; conditions: cultured tibiae from nontransgenic littermates in the presence of 10^-7 M CNP
Experimental: Tibiae from the fetus of CNP-transgenic mice or their nontransgenic littermates were dissected out on 16.5-d post coitus and cultured for 4 days in suspension in an artificial medium. To inhibit the effect of the endogenous CNP, the tibial culture was performed with a non-peptide NP receptor antagonist, HS-142-1 (Komatsu et al., Circ Res. 78:606-614, 1996) at a concentration of 50 mg/L in the medium. At the end of the culture period, the cultured tibiae were measured for their longitudinal length, and fixed and embedded for histological analysis. Sections of 5 μm in thickness were cut from the embedded specimen and stained with Alcian blue (pH 2.5) and counterstained with hematoxylin/eosin. The cGMP contents of the cultured tibiae were measured by RIA at the end of the 4-d culture period. Glycosaminoglycan synthesis of the cultured tibiae was assessed by measuring ^35SO4 incorporation (Mericq et al., Pediatr Res 47: 189-193, 2000). Namely, cultured tibiae of the CNP-transgenic mice and their nontransgenic littermates were labeled with 5 μCi/ml Na2^35SO4 (Amersham, specific activity 100 mCi/mmol) for 1 h. […] The precipitate was washed three times with 1 ml of 0.1% cetylpyridinium chloride (Sigma Chemical Co.)—0.2 M NaCl and then dissolved in 1 ml of 23 N formic acid, after which the ^35SO4 content was determined by a liquid scintillation counter.

[3] = tested on: p44 and p42 MAP kinases (ERK1/2); test: phosphorylation of ERK1/2 after basic FGF stimulation, Western blotting in ATDC cells; assay type: cell-based, mouse; conditions: pretreatment for 1 h, 10^-7 CNP
Experimental: as §1

[4] = tested on: organ cultures of tibiae from fetal mice, cultured chondrocytes and cultured osteoblasts; conditions: cited from earlier work

Substance | intracellular cGMP production after CNP stimulation [1] | longitudinal bone growth (tibiae from fetal mice) | elongation of the cartilagenous primordia with enlarged extracellular matrix and increased size of hypertrophic chondrocytes [2] | phosphorylation of ERK1/2 with basic FGF [3] | potency in the production of cGMP compared with ANP and BNP [4]
basic FGF: a ligand for FGFR3 (SIGMA) | 70 % of control |  |  |  | 
C-type natriuretic peptide [CNP] |  | significantly promotes | potent | significantly inhibited | more potent than ANP and BNP
